Assay results from patent US8865894B2, “Oxazolidin-2-one compounds and uses thereof” (Novartis AG, priority 2012, dated 2014).

Experiments:
human PI3Kα = target: T1, human PI3Kα (Homo sapiens, UniProt P42336); assay: Biochemical PI3Kalpha (KinaseGlo luminescent kinase assay); conditions: biochemical, 1 μM ATP, mean of n measurements
T1 construct: made in house
Procedure: (§1) Test compounds were dissolved in DMSO (10 mM) and transferred into 1.4 mL flat bottom or V-shaped Matrix tubes carrying a unique 2D matrix chip by individual Novartis compound hubs. The numbers of these chips were distinctively linked to Novartis Pharma Numbers. The stock solutions were stored at −20° C. if not used immediately. For the test procedure the vials were defrosted and identified by a scanner whereby a working sheet was generated that guided the subsequent working steps.
(§2) Compounds were either manually diluted in DMSO for individual experiments (96 wells enabling 10 cpds at 8 (single points) concentrations) as described in or prepared as described below if tested for profiling in 384-wells. This format enabled the assay of maximally 40 individual test compounds at 8 concentrations (single points) including 4 reference compounds. The dilution protocol included the production of “pre-dilution plates”, “master plates” and “assay plates”.
(§3) 96 polypropylene well plates were used as pre-dilution plates. A total of 4 pre-dilution plates were prepared including 10 test compounds each on the plate positions A1-A10, one standard compound at A11 and one DMSO control at A12. Programs have been written to run these pipetting steps on the HamiltonSTAR robots.
(§4) Identical “assay plates” were then prepared by pipetting 50 nL each of compound dilutions of the “master plates” into 384-well “assay plates”. The compounds were mixed with 4.5 μL of assays components plus 4.5 μL enzyme corresponding to a 1:181 dilution enabling the final concentration of 10, 3.0, 1.0, 0.3, 0.1, 0.03, 0.01 and 0.003 μM, respectively. The preparation of the “master plates” was handled by the Matrix PlateMate Plus robot and replication of “assay plates” by the HummingBird robot.
Catalytically active human PI3Kα, PI3Kβ, PI3Kδ, and mTOR were cloned, expressed and purified as described (Maira S M, Stauffer F, Brueggen J, Furet P, Schnell C, Fritsch C, Brachmann S, Chène P, de Pover A, Schoemaker K, Fabbro D, Gabriel D, Simonen M, Murphy L, Finan P, Sellers W, García-Echeverría C (2008), Mol Cancer Ther. 7:1851-63 and Maira S M, Pecchi S, Brueggen J, Huh K, Schnell C, Fritsch C, Nagel T, Wiesmann M, Brachmann S, Dorsch M, Chène P, Schoemaker K, De Pover A, Menezes D, Fabbro D, Sellers W, García-Echeverría C, Voliva C F (2011), Mol. Cancer Ther. accepted).
The luminescence-based ATP detection reagent KinaseGlo was obtained from Promega, (Cat. No. V6714, Lot No. 236161) through Catalys, Wallisellen, Switzerland. (L-alpha-phosphatidylinositol (PI), Liver, Bovine) were obtained from Avanti Polar Lipid (Cat. No. 840042C, Lot#LPI-274), Phosphatidylinositol-4,5-bisphosphate (PIP(4,5)2 (Avanti, Cat. No. 840046×) or L-α-phosphatidylinositol (PI) was obtained from Avanti Polar Lipid (Cat. No. 840042C, Lot#LPI-274). L-α-Phosphatidylserine (PS) was from Avanti Polar Lipid (Cat. No. 840032C), n-OctylGlucoside Avanti Polar Lipid (Cat. No. 10634425001). Luminescence is a well established readout to determine ATP concentrations and can thus be used to follow the activity of many kinases regardless of their substrate. The Kinase Glo Luminescent Kinase Assay (Promega, Madison/Wis., USA) is a homogeneous HTS method of measuring kinase activity by quantifying the amount of ATP remaining in solution following a kinase reaction.
50 nL of compound dilutions were dispensed onto black 384-well low volume Non Binding Styrene (NBS) plates (Costar Cat. No. NBS#3676) as described in section 8.2. L-α-phosphatidylinositol (PI), provided as 10 mg/ml solution in methanol, was transferred into a glass tube and dried under nitrogen beam. It was then resuspended in 3% OctylGlucoside by vortexing and stored at 4° C. 5 μL of a mix of PI/OG with the PI3Ka and Pi3Kb subtypes were added. Kinase reactions were started by addition of 5 μl of ATP-mix containing in a final volume 10 μL 10 mM TRIS-HCl pH 7.5, 3 mM MgCl2, 50 mM NaCl, 0.05% CHAPS, 1 mM DTT and 1 μM ATP, and occurred at room temperature.

PI3Kgamma = PI3Kgamma (Homo sapiens, UniProt P48736); assay: Biochemical PI3Kgamma (TR-FRET Adapta Universal Kinase Assay); conditions: mean of n measurements, read-out: PIK3g/ IC50
Procedure: as §1, §2, §3
100 μL of individual compound dilutions including standard compound and controls of the 4 “pre-dilution plates” were transferred into a 384 “master plate” including the following concentrations 1,820, 564, 182, 54.6, 18.2, 5.46, 1.82 and 0.546 μM, respectively in 90% DMSO.
as §4
The TR-FRET Adapta™ Universal Kinase Assay Kit was purchased from Invitrogen Corporation (Carlsbad/CA, USA) (Cat. No. PV5099). The kit contains the following reagents: Adapta Eu-anti-ADP Antibody (Europium labeled anti-ADP antibody in HEPES buffered saline, Cat. No. PV5097), Alexa Fluor® 647-labeled ADP tracer (Alexa Fluor® 647-labeled ADP tracer in HEPES buffered saline, Cat. No. PV5098), proprietary TR-FRET dilution buffer pH 7.5 (Cat. No. PV3574).
PIK3CD substrate Phosphatidylinositol was obtained from Invitrogen (vesicules consisting of 2 mM PI in 50 mM HEPES pH7.5; Cat. No. PV5371). PIK3CG substrate Phosphatidylinositol-4,5-bisphosphate (PIP(4,5)2 was obtained from Invitrogen (PIP2:PS large unilamellar vesicules consisting of 1 mM PIP2: 19 mM PS in 50 mM HEPES pH7.5, 3 mM MgCl2, 1 mM EGTA; Cat. No. PV5100).
Time-Resolved Fluorescence Resonance Energy Transfer (TR-FRET) is a technology based on energy transfer between two adjacent dyes, from an excited electron in one dye (the donor) to an electron of an adjacent dye (the acceptor) through resonance, then released as a photon. This energy transfer is detected by an increase in the fluorescence emission of the acceptor, and a decrease in the fluorescence emission of the donor. TR-FRET assays for protein kinases use a long-lifetime lanthanide Terbium or Europium chelates as the donor species which overcome interference from compound autofluorescence or light scatter from precipitated compounds, by introducing a delay after excitation by a flashlamp excitation source. Results are often expressed as a ratio of the intensities of the acceptor and donor fluorophores. The ratiometric nature of such a value corrects for differences in assay volumes between wells, as well as corrects for quenching effects due to colored compounds. The Adapta™ assay can be divided into two phases: a kinase reaction phase and an ADP detection phase. […]

PI3Kgamma, sequence (P48736 whole entry, species assumed): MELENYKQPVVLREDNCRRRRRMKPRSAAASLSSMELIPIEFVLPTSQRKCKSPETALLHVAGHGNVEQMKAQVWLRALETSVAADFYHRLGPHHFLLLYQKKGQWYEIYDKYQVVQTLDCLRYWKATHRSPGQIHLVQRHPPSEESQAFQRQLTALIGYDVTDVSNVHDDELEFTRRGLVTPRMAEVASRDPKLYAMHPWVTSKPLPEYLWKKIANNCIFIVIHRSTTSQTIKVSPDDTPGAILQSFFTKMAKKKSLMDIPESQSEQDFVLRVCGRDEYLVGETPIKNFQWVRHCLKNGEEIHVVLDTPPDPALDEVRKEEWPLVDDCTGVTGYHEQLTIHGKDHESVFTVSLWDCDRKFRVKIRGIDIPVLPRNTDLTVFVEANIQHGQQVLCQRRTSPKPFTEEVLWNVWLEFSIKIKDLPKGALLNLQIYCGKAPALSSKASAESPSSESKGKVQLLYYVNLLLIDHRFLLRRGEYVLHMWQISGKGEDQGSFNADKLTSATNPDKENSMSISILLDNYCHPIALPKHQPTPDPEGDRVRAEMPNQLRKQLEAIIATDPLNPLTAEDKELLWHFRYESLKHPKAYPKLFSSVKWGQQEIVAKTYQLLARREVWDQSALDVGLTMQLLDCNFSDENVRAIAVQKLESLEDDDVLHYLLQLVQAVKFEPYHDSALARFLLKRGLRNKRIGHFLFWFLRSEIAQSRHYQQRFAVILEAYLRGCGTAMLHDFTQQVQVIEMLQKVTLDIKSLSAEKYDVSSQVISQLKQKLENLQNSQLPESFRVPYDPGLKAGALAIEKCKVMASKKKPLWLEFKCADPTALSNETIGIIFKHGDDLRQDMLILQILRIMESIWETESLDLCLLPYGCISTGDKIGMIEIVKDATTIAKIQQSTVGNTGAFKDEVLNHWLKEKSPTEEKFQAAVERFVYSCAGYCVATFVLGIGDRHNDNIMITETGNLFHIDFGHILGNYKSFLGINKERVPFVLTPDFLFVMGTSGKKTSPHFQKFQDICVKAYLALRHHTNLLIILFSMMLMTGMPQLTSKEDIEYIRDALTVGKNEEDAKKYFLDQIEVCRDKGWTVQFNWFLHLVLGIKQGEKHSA
T1 sequence (P42336 with tags, fused parts or gaps limits assumed): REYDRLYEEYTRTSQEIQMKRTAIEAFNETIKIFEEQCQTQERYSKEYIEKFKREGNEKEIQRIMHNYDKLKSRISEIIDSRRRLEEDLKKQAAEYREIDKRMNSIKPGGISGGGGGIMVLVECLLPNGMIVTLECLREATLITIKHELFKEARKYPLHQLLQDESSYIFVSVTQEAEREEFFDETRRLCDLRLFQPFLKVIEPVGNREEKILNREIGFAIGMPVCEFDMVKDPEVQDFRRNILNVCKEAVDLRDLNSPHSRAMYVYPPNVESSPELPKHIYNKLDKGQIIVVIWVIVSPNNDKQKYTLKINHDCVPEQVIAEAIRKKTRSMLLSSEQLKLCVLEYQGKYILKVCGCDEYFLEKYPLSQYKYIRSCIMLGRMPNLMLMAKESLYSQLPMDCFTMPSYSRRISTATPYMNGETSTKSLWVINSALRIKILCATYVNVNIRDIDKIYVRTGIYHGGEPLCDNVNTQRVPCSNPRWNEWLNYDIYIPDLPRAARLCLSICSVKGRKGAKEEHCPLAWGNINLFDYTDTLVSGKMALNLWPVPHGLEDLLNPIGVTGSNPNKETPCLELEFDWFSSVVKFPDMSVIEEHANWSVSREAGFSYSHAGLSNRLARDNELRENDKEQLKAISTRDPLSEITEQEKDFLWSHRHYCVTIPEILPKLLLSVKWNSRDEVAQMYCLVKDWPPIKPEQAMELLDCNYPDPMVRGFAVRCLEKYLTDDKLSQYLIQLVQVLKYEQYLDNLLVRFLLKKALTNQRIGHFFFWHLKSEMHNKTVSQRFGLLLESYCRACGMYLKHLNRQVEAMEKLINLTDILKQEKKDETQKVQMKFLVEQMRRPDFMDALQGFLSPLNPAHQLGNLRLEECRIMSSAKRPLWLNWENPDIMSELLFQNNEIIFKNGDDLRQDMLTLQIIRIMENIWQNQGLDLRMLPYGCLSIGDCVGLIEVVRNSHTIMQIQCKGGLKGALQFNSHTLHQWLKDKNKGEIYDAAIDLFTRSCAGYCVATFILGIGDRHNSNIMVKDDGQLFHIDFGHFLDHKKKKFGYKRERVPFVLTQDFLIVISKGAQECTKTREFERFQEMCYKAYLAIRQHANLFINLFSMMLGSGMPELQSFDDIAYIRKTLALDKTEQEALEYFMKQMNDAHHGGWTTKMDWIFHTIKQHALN

SMILES	PI3Ka/ IC50 (human PI3Kα)	IC50 (PI3Kgamma)
C[C@H]1COCCN1c1nc(-c2cnc(N)nc2C(F)(F)F)cc(N2C(=O)OC[C@@H]2C)n1 [Example 13, (S)-3-[2′-Amino-2-((S)-3-methyl-morpholin-4-yl)-4′-trifluoromethyl-[4,5′]bipyrimidinyl-6-yl]-4-methyl-oxazolidin-2-one]	0.203 umol I-1	386 nM
Nc1ncc(-c2cc(N3C[C@@H](CO)OC3=O)nc(N3CCOCC3)n2)c(C(F)(F)F)n1 [Example 14, (S)-3-(2′-Amino-2-morpholin-4-yl-4′-trifluoromethyl-[4,5′]bipyrimidinyl-6-yl)-5-hydroxymethyl-oxazolidin-2-one]	0.057 umol I-1	1230 nM
C[C@H]1CN(c2cc(-c3cnc(N)nc3C(F)(F)F)nc(N3CCOCC3)n2)C(=O)O1 [Example 16, (S)-3-(2′-Amino-2-morpholin-4-yl-4′-trifluoromethyl-[4,5′]bipyrimidinyl-6-yl)-5-methyl-oxazolidin-2-one]	0.030 umol I-1	770 nM
Nc1ncc(-c2cc(N3C[C@H](CO)OC3=O)nc(N3CCOCC3)n2)c(C(F)(F)F)n1 [Example 20, (R)-3-(2′-Amino-2-morpholin-4-yl-4′-trifluoromethyl-[4,5′]bipyrimidinyl-6-yl)-5-hydroxymethyl-oxazolidin-2-one]	0.024 umol I-1	601 nM

The next compounds have a lower IC50 (PI3Kgamma) than those just listed; values first:

PI3Ka/ IC50 (human PI3Kα)	IC50 (PI3Kgamma)	SMILES
0.026 umol I-1	338 nM	C[C@H]1[C@H](CO)OC(=O)N1c1cc(-c2cnc(N)nc2C(F)(F)F)nc(N2CCOCC2)n1 [Example 15, (4S,5R)-3-(2′-Amino-2-morpholin-4-yl-4′-trifluoromethyl-[4,5′]bipyrimidinyl-6-yl)-5-hydroxymethyl-4-methyl-oxazolidin-2-one]
0.017 umol I-1	328 nM	[2H]C1([2H])OC([2H])([2H])C([2H])([2H])N(c2nc(-c3cnc(N)nc3C(F)(F)F)cc(N3C(=O)OC[C@@H]3C)n2)C1([2H])[2H] [Example 17, (S)-3-(2′-amino-2-D8-morpholino-4′-(trifluoromethyl)-[4,5′-bipyrimidin]-6-yl)-4-methyloxazolidin-2-one]
0.009 umol I-1	253 nM	C[C@H]1OC(=O)N(c2cc(-c3cnc(N)nc3C(F)(F)F)nc(N3CCOCC3)n2)[C@H]1CO [Example 18, (4S,5R)-3-(2′-Amino-2-morpholin-4-yl-4′-trifluoromethyl-[4,5′]bipyrimidinyl-6-yl)-4-hydroxymethyl-5-methyl-oxazolidin-2-one]
0.006 umol I-1	184 nM	C[C@H]1[C@@H](CO)OC(=O)N1c1cc(-c2cnc(N)nc2C(F)(F)F)nc(N2CCOCC2)n1 [Example 19, (4S,5S)-3-(2′-Amino-2-morpholin-4-yl-4′-trifluoromethyl-[4,5′]bipyrimidinyl-6-yl)-5-hydroxymethyl-4-methyl-oxazolidin-2-one]
0.019 umol I-1	370 nM	Nc1ncc(-c2cc(N3C(=O)O[C@H]4COC[C@H]43)nc(N3CCOCC3)n2)c(C(F)(F)F)n1 [Example 21, (3aR,6aR)-3-(2′-amino-2-morpholino-4′-(trifluoromethyl)-[4,5′-bipyrimidin]-6-yl)-tetrahydrofuro[3,4-d]oxazol-2(3H)-one]
0.006 umol I-1	207 nM	C[C@H]1[C@@H](CCO)OC(=O)N1c1cc(-c2cnc(N)nc2C(F)(F)F)nc(N2CCOCC2)n1 [Example 23, (4S,5R)-3-(2′-Amino-2-morpholino-4′-(trifluoromethyl)-[4,5′-bipyrimidin]-6-yl)-5-(2-hydroxyethyl)-4-methyloxazolidin-2-one]
